Values of other authors in patent US20080003262A1, “COMPOSITIONS AND THERAPEUTIC METHODS OF USE” (DrugTech Corporation, priority 2006, published 2008).

Test system: DIV
Conditions: intravaginal 2% clindamycin cream or 10% hydrocortisone

For C[C@]12CCC(=O)C=C1CC[C@@H]1[C@@H]2[C@@H](O)C[C@@]2(C)[C@H]1CC[C@]2(O)C(=O)CO [hydrocortisone], the “Response of DIV to treatment” value is given as “responds”.
